Values after ≈ are worked out from the molar mass of the structure shown. Structures can show the parent of a compound that is named as a salt. Where two headings read alike, the source gives them in different places.
Columns and labels:
Assay type in all cases: cell-based
Proteus morgani IID 602 = assay: Antibacterial activity (MIC), Proteus morgani IID 602; conditions: read-out: MIC (minimum effective inhibitory concentration)
Excerpt: (§1) Antibacterial activities (minimum effective inhibitory concentrations) of the compounds of formula I are shown in the following table in comparison with those of cefatazidime having the structure [drawing 5] and cefmenoxime having the structure [drawing 6]

Staph. aureus ATCC 6538P = assay: Antibacterial activity (MIC), Staph. aureus ATCC 6538P; conditions: Staphylococcus aureus, ATCC6538P, read-out: MIC (minimum effective inhibitory concentration)
Excerpt: as §1

[1] = system: Kleb. pneumoniae ATCC 10031; assay: Antibacterial activity (MIC), Kleb. pneumoniae ATCC 10031; conditions: Klebsiella pneumoniae, ATCC10031, read-out: MIC (minimum effective inhibitory concentration)
Excerpt: as §1

E. coli Ebara = assay: Antibacterial activity (MIC), E. coli Ebara; conditions: Escherichia coli, read-out: MIC (minimum effective inhibitory concentration)
Excerpt: as §1

Ent. cloacae V-8 = assay: Antibacterial activity (MIC), Ent. cloacae V-8; conditions: Enterobacter cloacae, V8, read-out: MIC (minimum effective inhibitory concentration)
Excerpt: as §1

[2] = system: Ps. aeruginosa NCTC 10490; assay: Antibacterial activity (MIC), Ps. aeruginosa NCTC 10490; conditions: Pseudomonas aeruginosa, NCTC10490, read-out: MIC (minimum effective inhibitory concentration)
Excerpt: as §1

[3] = system: Ent. aerogenes ATCC 13048 (MS-1); assay: Antibacterial activity (MIC), Ent. aerogenes ATCC 13048 (MS-1); conditions: Klebsiella aerogenes, ATCC13048, read-out: MIC (minimum effective inhibitory concentration)
Excerpt: as §1

Staph. aureus Smith = assay: Antibacterial activity (MIC), Staph. aureus Smith; conditions: Staphylococcus aureus, read-out: MIC (minimum effective inhibitory concentration)
Excerpt: as §1

Serr. marcescens IID 620 = assay: Antibacterial activity (MIC), Serr. marcescens IID 620; conditions: Serratia marcescens
Excerpt: as §1

Staph. aureus Terashima = assay: Antibacterial activity (MIC), Staph. aureus Terashima; conditions: Staphylococcus aureus, read-out: MIC (minimum effective inhibitory concentration)
Excerpt: as §1

Ps. aeruginosa IID 5142 = assay: Antibacterial activity (MIC), Ps. aeruginosa IID 5142; conditions: Pseudomonas aeruginosa, IID5142, read-out: MIC (minimum effective inhibitory concentration)
Excerpt: as §1

[4] = IID620, Serr. marcescens IID 620, read-out: MIC (minimum effective inhibitory concentration)

MIC (Proteus morgani IID 602; Proteus morgani IID 602) [mg/L]	MIC (Staph. aureus ATCC 6538P) [mg/L]	MIC [1] [mg/L]	MIC (E. coli Ebara; E. coli Ebara) [mg/L]	MIC (Ent. cloacae V-8) [mg/L]	MIC [2] [mg/L]	MIC [3] [mg/L]	MIC (Staph. aureus Smith) [mg/L]	MIC (Serr. marcescens IID 620; [4]) [mg/L]	MIC (Staph. aureus Terashima) [mg/L]	MIC (Ps. aeruginosa IID 5142) [mg/L]	Compound	MIC (Proteus morgani IID 602) [mg/L]	MIC (E. coli Ebara) [mg/L]	MIC (Serr. marcescens IID 620; IID620, read-out: MIC (minimum effective inhibitory concentration)) [mg/L]
0.39 (≈ 0.633 µM)	1.56 (≈ 2.53 µM)	≤ 0.2	≤ 0.2	3.13 (≈ 5.08 µM)	0.39 (≈ 0.633 µM)	1.56 (≈ 2.53 µM)	1.56 (≈ 2.53 µM)	0.78 (≈ 1.27 µM)	1.56 (≈ 2.53 µM)	6.25 (≈ 10.2 µM)	NC(=O)c1cc[n+](CC2=C(C(=O)[O-])N3C(=O)C(NC(=O)/C(=N\OCc4csc(N)n4)c4csc(N)n4)C3SC2)cc1 (stereo not drawn) [Example 9, (Z)-7-{α-(2-amino-4-thiazolyl)-α-[(2-amino-4-thiazolyl)methoxyimino]acetamido}-3-(4-carbamoyl-1-pyridiniummethyl)-3-cephem-4-carboxylate]			
0.78	3.13	≤ 0.2	1.56	3.13	1.56	1.56	3.13	≤ 0.2	6.25	25	Nc1nc(CO/N=C(\C(=O)NC2C(=O)N3C(C(=O)[O-])=C(C[n+]4cccc(CC(=O)O)c4)CSC23)c2csc(N)n2)cs1 (stereo not drawn) [Example 12, (Z)-7-{α-(2-amino-4-thiazolyl)-α-[(2-amino-4-thiazolyl)methoxyimino]acetamido}-3-(3-carboxylatemethyl-1-pyridiniomethyl)-3-cephem-4-carboxylate mono-sodium salt]			
1.56	3.13	≤ 0.2	3.13	3.13	1.56	3.13	3.13	≤ 0.2	6.25	25	Nc1nc(CO/N=C(\C(=O)NC2C(=O)N3C(C(=O)[O-])=C(C[n+]4cccc(C(=O)O)c4)CSC23)c2csc(N)n2)cs1 (stereo not drawn) [Example 13, (Z)-7-{α-(2-amino-4-thiazolyl)-α-[(2-amino-4-thiazolyl)methoxyimino]acetamido}-3-(3-carboxylate-1-pyridiniomethyl)-3-cephem-4-carboxylatemono-sodium salt]			
0.78	3.13	≤ 0.2	3.13	3.13	0.39	1.56	3.13	≤ 0.2	6.25	12.5	Nc1nc(CO/N=C(\C(=O)NC2C(=O)N3C(C(=O)[O-])=C(C[n+]4ccc(C(=O)O)cc4)CSC23)c2csc(N)n2)cs1 (stereo not drawn) [Example 14, (Z)-7-{α-(2-amino-4-thiazolyl)-α-[(2-amino-4-thiazolyl)methoxyimino]acetamido}-3-(4-carboxylate-1-pyridiniomethyl)-3-cephem-4-carboxylatemono-sodium salt]			
1.56 (≈ 2.59 µM)	1.56 (≈ 2.59 µM)	≤ 0.2	≤ 0.2	3.13 (≈ 5.19 µM)	≤ 0.2	1.56 (≈ 2.59 µM)	1.56 (≈ 2.59 µM)	≤ 0.2	1.56 (≈ 2.59 µM)	6.25 (≈ 10.4 µM)	Nc1nc(CO/N=C(\C(=O)NC2C(=O)N3C(C(=O)[O-])=C(C[n+]4ccc(CO)cc4)CS[C@H]23)c2csc(N)n2)cs1 (stereo partly drawn) [Example 15, (Z)-7-{α-(2-amino-4-thiazolyl)-α-[(2-amino-4-thiazolyl)methoxyimino]acetamido}-3-(4-hydroxymethyl-1-pyridiniomethyl)-3-cephem-4-carboxylate]			
0.78 (≈ 1.33 µM)	3.13 (≈ 5.32 µM)	≤ 0.2	1.56 (≈ 2.65 µM)	6.25 (≈ 10.6 µM)	1.56 (≈ 2.65 µM)	3.13 (≈ 5.32 µM)	6.25 (≈ 10.6 µM)	0.39 (≈ 0.663 µM)	6.25 (≈ 10.6 µM)	25 (≈ 42.5 µM)	Nc1nc(CO/N=C(\C(=O)NC2C(=O)N3C(C(=O)[O-])=C(C[n+]4cccc(O)c4)CS[C@H]23)c2csc(N)n2)cs1 (stereo partly drawn) [Example 16, (Z)-7-{α-(2-amino-4-thiazolyl)-α-[(2-amino-4-thiazolyl)methoxyimino]acetamido}-3-(3-hydroxy-1-pyridiniomethyl]-3-cephem-4-carboxylate]			

More lines, now with the values behind:

Compound	MIC (Proteus morgani IID 602; Proteus morgani IID 602) [mg/L]	MIC (Staph. aureus ATCC 6538P) [mg/L]	MIC [1] [mg/L]	MIC (E. coli Ebara; E. coli Ebara) [mg/L]	MIC (Ent. cloacae V-8) [mg/L]	MIC [2] [mg/L]	MIC [3] [mg/L]	MIC (Staph. aureus Smith) [mg/L]	MIC (Serr. marcescens IID 620; [4]) [mg/L]	MIC (Staph. aureus Terashima) [mg/L]	MIC (Ps. aeruginosa IID 5142) [mg/L]	MIC (Proteus morgani IID 602) [mg/L]	MIC (E. coli Ebara) [mg/L]	MIC (Serr. marcescens IID 620; IID620, read-out: MIC (minimum effective inhibitory concentration)) [mg/L]
CC1=C(C(=O)O)N2C(=O)C(NC(=O)/C(=N\OCc3csc(N)n3)c3csc(N)n3)[C@H]2SC1 (stereo partly drawn) [1(b), (Z)-7-{α-(2-amino-4-thiazolyl)-α-[(2-amino-4-thiazolyl)methoxyimino]acetamido}-3-methyl-3-cephem-4-carboxylic acid]	3.13 (≈ 6.32 µM)	3.13 (≈ 6.32 µM)	≤ 0.2	1.56 (≈ 3.15 µM)	6.25 (≈ 12.6 µM)	6.25 (≈ 12.6 µM)	6.25 (≈ 12.6 µM)	6.25 (≈ 12.6 µM)	1.56 (≈ 3.15 µM)	12.5 (≈ 25.2 µM)				
CC(=O)OCC1=C(C(=O)O)N2C(=O)C(NC(=O)/C(=N\OCc3csc(N)n3)c3csc(N)n3)[C@H]2SC1 (stereo partly drawn) [2(b), (Z)-7-{α-(2-amino-4-thiazolyl)-α-[(2-amino-4-thiazolyl)methoxyimino]acetamido}-3-acetoxymethyl-3-cephem-4-carboxylic acid]	0.39 (≈ 0.704 µM)	1.56 (≈ 2.82 µM)	≤ 0.2	≤ 0.2	3.13 (≈ 5.65 µM)	0.39 (≈ 0.704 µM)	1.56 (≈ 2.82 µM)	1.56 (≈ 2.82 µM)	0.78 (≈ 1.41 µM)	3.13 (≈ 5.65 µM)	25 (≈ 45.2 µM)			
CSC1=C(C(=O)O)N2C(=O)C(NC(=O)/C(=N\OCc3csc(N)n3)c3csc(N)n3)[C@H]2SC1 (stereo partly drawn) [3(b), (Z)-7-{α-(2-amino-4-thiazolyl)-α-[(2-amino-4-thiazolyl)methoxyimino]acetamido}-3-methylthio-3-cephem-4-carboxylic acid]	1.56 (≈ 2.96 µM)	0.78 (≈ 1.48 µM)	≤ 0.2	3.13 (≈ 5.93 µM)	3.13 (≈ 5.93 µM)	1.56 (≈ 2.96 µM)	6.25 (≈ 11.8 µM)	0.78 (≈ 1.48 µM)	1.56 (≈ 2.96 µM)	1.56 (≈ 2.96 µM)				
CC(C)(O/N=C(\C(=O)N[C@@H]1C(=O)N2C(C(=O)[O-])=C(C[n+]3ccccc3)CS[C@H]12)c1csc(N)n1)C(=O)O [CD, Ceftazidime, reference compound]		6.25 (≈ 11.4 µM)	≤ 0.2		1.56 (≈ 2.85 µM)	0.78 (≈ 1.43 µM)	0.39 (≈ 0.714 µM)	6.25 (≈ 11.4 µM)		12.5 (≈ 22.9 µM)	1.56 (≈ 2.85 µM)	≤ 0.2	≤ 0.2	≤ 0.2
CO/N=C(\C(=O)N[C@@H]1C(=O)N2C(C(=O)O)=C(CSc3nnnn3C)CS[C@H]12)c1csc(N)n1 [CX, Cefmenoxime, reference compound]	≤ 0.2	3.13 (≈ 6.12 µM)	≤ 0.2	0.2 (≈ 0.391 µM)	3.13 (≈ 6.12 µM)	1.56 (≈ 3.05 µM)		6.25 (≈ 12.2 µM)	0.2 (≈ 0.391 µM)	12.5 (≈ 24.4 µM)	100 (≈ 195 µM)			
Cn1nc(O)c(=O)nc1SCC1=C(C(=O)O)N2C(=O)C(NC(=O)/C(=N\OCc3csc(N)n3)c3csc(N)n3)[C@H]2SC1 (stereo partly drawn) [Example 5, (Z)-7-{α-(2-amino-4-thiazolyl)-α-[(2-amino-4-thiazolyl)methoxyimino]acetamido}-3-{[(2,5-dihydro-6-hydroxy-2-methyl-5-oxo-as-triazine-3-yl)thio]methyl}-3-cephem-4-carboxylic acid]	0.39 (≈ 0.597 µM)	3.13 (≈ 4.8 µM)	≤ 0.2	≤ 0.2	1.56 (≈ 2.39 µM)	1.56 (≈ 2.39 µM)	1.56 (≈ 2.39 µM)	3.13 (≈ 4.8 µM)	0.78 (≈ 1.19 µM)	12.5 (≈ 19.2 µM)	12.5 (≈ 19.2 µM)			
Cn1nnnc1SCC1=C(C(=O)O)N2C(=O)C(NC(=O)/C(=N\OCc3csc(N)n3)c3csc(N)n3)C2SC1 (stereo not drawn) [Example 6]	0.39 (≈ 0.64 µM)	0.78 (≈ 1.28 µM)	≤ 0.2	≤ 0.2	1.56 (≈ 2.56 µM)	≤ 0.2	1.56 (≈ 2.56 µM)	0.78 (≈ 1.28 µM)	0.39 (≈ 0.64 µM)	1.56 (≈ 2.56 µM)	12.5 (≈ 20.5 µM)			
Nc1nc(CO/N=C(\C(=O)NC2C(=O)N3C(C(=O)[O-])=C(C[n+]4ccccn4)CSC23)c2csc(N)n2)cs1 (stereo not drawn) [Example 7, (Z)-7-{α-(2-amino-4-thiazolyl)-α-[(2-amino-4-thiazolyl)methoxyimino]acetamido}-3-(1-pyridadiniomethyl)-3-cephem-4-carboxylate]	1.56 (≈ 2.72 µM)	1.56 (≈ 2.72 µM)	≤ 0.2	0.78 (≈ 1.36 µM)	6.25 (≈ 10.9 µM)	0.78 (≈ 1.36 µM)	3.13 (≈ 5.46 µM)	1.56 (≈ 2.72 µM)	0.39 (≈ 0.68 µM)	1.56 (≈ 2.72 µM)	12.5 (≈ 21.8 µM)			
Nc1nc(CO/N=C(\C(=O)NC2C(=O)N3C(C(=O)[O-])=C(C[n+]4ccccc4)CSC23)c2csc(N)n2)cs1 (stereo not drawn) [Example 8, (Z)-7-{α-(2-amino-4-thiazolyl)-α-[(2-amino-4-thiazolyl)methoxyimino]acetamido}-3-(1-pyridiniummethyl)-3-cephem-4-carboxylate]	0.78 (≈ 1.36 µM)	1.56 (≈ 2.72 µM)	≤ 0.2	0.78 (≈ 1.36 µM)	6.25 (≈ 10.9 µM)	≤ 0.2	1.56 (≈ 2.72 µM)	0.78 (≈ 1.36 µM)	0.78 (≈ 1.36 µM)	1.56 (≈ 2.72 µM)	3.13 (≈ 5.47 µM)			

Source: patent US4608373A, “Cephem compounds” (Yamanouchi Pharmaceutical Co., Ltd., priority 1982, dated 1986)
